We go through eight compounds from patent US7973062B2, “Androgen receptor-ablative agents” (The Ohio State University Research Foundation, priority 2008, dated 2011).

Common to all, as to type: cell-based
For experiment [1], the system named is androgen receptor (AR) expression. Kind of experiment: Western blot analysis of AR protein expression in LNCaP cells. Particulars: for suppression of AR protein expression (in words): 72 h, Western blot. On the procedure: RT-PCR and Immunoblotting. LNCaP cells were cultured in T25 flasks at an initial density of 1×10^6 cells/flask. After exposure to various compounds at the indicated conditions, cells were subject to total RNA isolation by using an RNeasy mini-kit (QIAGEN, Valencia, Calif.). RNA concentrations were determined by measuring absorption at 260 nm in a spectrophotometer. Aliquots of 6 μg of total RNA from each sample were reverse-transcribed to cDNA using an Omniscript RT Kit (QIAGEN) according to the manufacturer's instructions, using suitable primers.
For immunoblotting, protein extracts were prepared by M-PER Mammalian Protein Extraction Reagent (Pierce, Rockford, Ill.) with freshly added 1% phosphatase and protease inhibitor cocktails (Calbiochem) followed by centrifugation at 13,000×g for 10 min. Supernatant was collected and protein concentration was determined by protein assay reagent (Bio-Rad, CA). Protein extracts were then suspended in 2×SDS sample buffer, and subject to 10% SDS-polyacrylamide gels. After electrophoresis, proteins were transferred to nitrocellulose membranes using a semidry transfer cell. The transblotted membrane was washed twice with Tris-buffered saline containing 0.1% Tween 20 (TBST). After blocking with TBST containing 5% nonfat milk for 1 h, the membrane was incubated with mouse monoclonal anti-AR (Santa Cruz) or anti-β-actin (MP Biomedicals) antibodies (diluted 1:1000) in 1% TBST nonfat milk at 4° C. overnight. After incubation with the primary antibody, the membrane was washed three times with TBST for a total of 30 min, followed by incubation with horseradish peroxidase conjugated goat anti-mouse IgG (diluted 1:2500) for 1 h at room temperature. After three thorough washes with TBST for a total of 30 min, the immunoblots were visualized by enhanced chemiluminescence.
(In general: A western blot detects proteins with antibodies after separation by electrophoresis.)

Another experiment deals with AR promoter. Briefly: AR promoter-luciferase reporter assay in transiently transfected LNCaP cells. The note with it: compounds at 10 μM, 48 h, ciglitazone and Δ2CG at 20 μM. From the text:
(§1) Transfection and Luciferase assay. The 3.6-kilobase AR promoter-linked reporter plasmid p-3600ARCAT was kindly provided by Dr. Chawnshang Chang (University of Rochester Medical Center, Rochester, N.Y.). The AR promoter gene (−3600 to +550) encompassing the transcription start site was isolated by using PCR to generate hAR-luc with suitable primers. The fragment was subcloned into the pGL3 luciferase reporter vector (Promega, Madison, Wis.) at KpnI and BglII in the multiple cloning site. The PPRE-x3-TK-Luc reporter vector contains three copies of the PPAR-response element (PPRE) upstream of the thymidine kinase promoter-luciferase fusion gene and was kindly provided by Dr. Bruce Spiegelman (Harvard University, Cambridge, Mass.). The pCMVSp1 plasmid was purchased from Origene Technologies, Inc. (Rockville, Md.). LNCaP or PC3 cells were transfected with 5 μg of individual plasmids in an Amaxa Nucleofector using a cell line-specific nucleofector kit according to the manufacturer's protocol (Amaxa Biosystems, Cologne, Germany), and then seeded in 6-well plates at 5×10^5 cells per well for 48 h. The transfection efficiency was determined to be 70-80% by transfecting cells with 2 μg of pmaxGFP plasmid, followed by fluorescence microscopy to measure GFP expression. For each transfection, herpes simplex virus thymidine kinase promoter-driven Renilla reniformis luciferase was used as an internal control for normalization.
For the reporter gene assay, after transfection, cells were cultured in 24-well plates in 10% FBS-supplemented RPMI 1640 medium for 48 h, subject to different treatments for the indicated times, collected, and lysed with passive lysis buffer (Promega). Fifty-μl aliquots of the lysates were added to 96-well plates, and luciferase activity was monitored after adding 100 μl of luciferase substrate (Promega) each well by using a MicroLumatPlus LB96V luminometer (Berthold Technologies, Oak Ridge, Tenn.) with the WinGlow software package. All transfection experiments were carried out in six replicate.
(In general: In a reporter assay the amount or activity of a reporter protein is the signal.)

Experiment [2] relates to LNCaP androgen-responsive prostate cancer cells. Kind of experiment: MTT cell viability assay, LNCaP cells. The note with it: 48 h. Here is the method:
Cell Counting and Cell Viability Assay. LNCaP or PC-3 cells were placed in six-well plates (2.5×10^5 cells/well) in 10% FBS-supplemented RPMI 1640 for 24 h, and treated with various concentrations of compound 12 for additional 24, 48 and 72 h. Cells were then trypsinized and counted by using a Coulter counter (Model Z1 D/T, Beckman Coulter, Fullerton, Calif.). Cell viability was assessed by using the 3-(4,5-dimethylthiazol-2-yl)-2,5-diphenyl-2H-tetrazolium bromide (MTT) assay in six replicates in 96-well plates. LNCaP or PC-3 cells were seeded at 6000 cells per well in 10% FBS-supplemented RPMI 1640 for 24 h, followed by treatments with various compounds in 5% FBS-supplemented RPMI 1640 at the indicated concentrations. Controls received DMSO at a concentration equal to that in drug-treated cells. After the end of incubation, MTT (0.5 mg/ml) in 10% FBS-supplemented RPMI 1640 was added to each well, and cells were incubated at 37° C. for 2 hours. Medium was removed and the reduced MTT dye was solubilized in DMSO (200 μl/well). Absorbance was determined at 570 nm by a 96-well plate reader.
(In general: Formazan colour is commonly taken as a measure of viable cells.)

The subject of experiment [3] is PARP cleavage, caspase 3 and caspase 7 activation. Briefly: Western blot of apoptosis-related biomarkers in LNCaP cells. The note with it: 72 h.
A further experiment concerns the target T1, PPARγ (Homo sapiens, UniProt P37231).
T1 construct: In PC-3 cells transfected with a reporter construct (PPRE-x3-TK-Luc); endogenous in cells; host or cells: PC-3
T1 sequence (P37231 1-505): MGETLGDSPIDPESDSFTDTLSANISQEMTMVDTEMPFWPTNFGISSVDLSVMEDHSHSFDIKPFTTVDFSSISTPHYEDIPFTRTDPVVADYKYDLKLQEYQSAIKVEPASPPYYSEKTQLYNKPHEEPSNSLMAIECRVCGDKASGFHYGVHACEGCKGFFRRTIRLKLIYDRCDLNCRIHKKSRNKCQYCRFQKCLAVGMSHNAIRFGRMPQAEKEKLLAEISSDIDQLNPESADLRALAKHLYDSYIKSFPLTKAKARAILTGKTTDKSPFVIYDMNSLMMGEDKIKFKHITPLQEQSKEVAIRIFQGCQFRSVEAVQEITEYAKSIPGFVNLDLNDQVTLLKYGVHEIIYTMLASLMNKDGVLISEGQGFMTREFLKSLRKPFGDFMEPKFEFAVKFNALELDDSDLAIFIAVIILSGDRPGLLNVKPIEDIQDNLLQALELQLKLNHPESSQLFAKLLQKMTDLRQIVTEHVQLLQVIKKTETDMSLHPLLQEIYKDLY
Kind of experiment: PPRE-luciferase reporter assay (PPRE-x3-TK-Luc) in PC-3 cells. Particulars: PC-3 cells transfected with PPRE-x3-TK-Luc.
Source text: as §1, with “The transfection efficiency was determined to be 70-80% by transfecting cells with 2 μg of pmaxGFP plasmid, followed by fluorescence microscopy to measure GFP expression.” left out
Fifty-μl aliquots of the lysates were added to 96-well plates, and luciferase activity was monitored after adding 100 μl of luciferase substrate (Promega) each well by using a MicroLumatPlus LB96V luminometer (Berthold Technologies, Oak Ridge, Tenn.) with the WinGlow software package. All transfection experiments were carried out in six replicate.

As to `CC1(COc2cccc(/C=C3\SC(=O)NC3=O)c2)CCCCC1` [Compound 1, 5-[3-(1-Methyl-cyclohexylmethoxy)-benzylidene]-thiazolidine-2,4-dione], the “suppression of AR protein expression (in words)” value in experiment [1] (10% FBS) is “dose-dependent effect on suppressing AR protein expression”. In addition, in the experiment on AR promoter, the “suppression of AR promoter-luciferase activity / AR transcription (in words)” value is on record as “enhanced AR-ablating activity”.
Take `CCOc1cc(/C=C2\SC(=O)NC2=O)ccc1OCC1(C)CCCCC1` [Compound 6, 5-[3-Ethoxy-4-(1-methyl-cyclohexylmethoxy)-benzylidene]-thiazolidine-2,4-dione]: the “suppression of AR protein expression (in words)” value in experiment [1] (10% FBS) is listed as “dose-dependent effect on suppressing AR protein expression”.
For the compound `CC1(CN2C(=O)S/C(=C\c3ccc(O)cc3)C2=O)CCCCC1` [Compound 9, 5-(4-Hydroxy-benzylidene)-3-(1-methyl-cyclohexylmethyl)-thiazolidine-2,4-dione], the “suppression of AR protein expression (in words)” value in experiment [1] (10% FBS) is recorded as “dose-dependent effect on suppressing AR protein expression”. Further, in the experiment with AR promoter, the “suppression of AR promoter-luciferase activity / AR transcription (in words)” value is “enhanced AR-ablating activity”.
As for `CC1(CN2C(=O)S/C(=C\c3ccccc3O)C2=O)CCCCC1` [Compound 10, 5-(2-Hydroxy-benzylidene)-3-(1-methyl-cyclohexylmethyl)-thiazolidine-2,4-dione], the “inhibition of LNCaP cell viability (in words)” value (shortened to “inhibition”) in experiment [2] is reported as “abolished the ability to suppress”. Further, in the experiment on AR promoter, the “suppression of AR promoter-luciferase activity / AR transcription (in words)” value is “abolished the ability to suppress”.
With `CC1(CN2C(=O)S/C(=C\c3cccc(O)c3)C2=O)CCCCC1` [Compound 11, 5-(3-Hydroxy-benzylidene)-3-(1-methyl-cyclohexylmethyl)-thiazolidine-2,4-dione], the “inhibition” value in experiment [2] is “abolished the ability to suppress”. Also, the “suppression of AR promoter-luciferase activity / AR transcription (in words)” value in the experiment on AR promoter is “abolished the ability to suppress”.
Take `CC1(CN2C(=O)S/C(=C\c3cc(Br)c(O)c(Br)c3)C2=O)CCCCC1` [Compound 16, 5-(3,5-Dibromo-4-hydroxy-benzylidene)-3-(1-methyl-cyclohexylmethyl)-thiazolidine-2,4-dione]: the “inhibition” value in experiment [2] is “optimal agents”. In experiment [3], the “apoptosis-related biomarkers: PARP cleavage, proteolytic activation of caspase 3 and caspase 7” value is listed as “dose-dependent effects”. For the same compound, the IC50 in experiment [1] (72-h exposure, Western blot (FIG. 4C), read-out: IC50 for suppressing AR expression) is around 4 µM. Besides, on PPARγ, the “PPARγ activation (in words)” value is on record as “lacked appreciable activity”. Moreover, the “suppression of AR promoter-luciferase activity / AR transcription (in words)” value with AR promoter is “optimal agents”.
Take `CC1(CN2C(=O)SC(Cc3ccc(O)c(C(F)(F)F)c3)C2=O)CCCCC1` (stereo not shown) [Compound 20, 5-(4-Hydroxy-3-trifluoromethyl-benzyl)-3-(1-methyl-cyclohexylmethyl)-thiazolidine-2,4-dione]: the “inhibition” value in experiment [2] was “retained the ability to suppress AR expression and cell viability, though with slightly lower potency”. In experiment [1] (10% FBS), the “suppression of AR protein expression (in words)” value was “retained the ability to suppress AR expression and cell viability, though with slightly lower potency”.
For `CC1(COc2ccc(C=C3SC(=O)NC3=O)cc2)CCCCC1` [Δ2CG, reference compound], the “suppression of AR protein expression (in words)” value in experiment [1] (10% FBS) is on record as “modestly higher potency than ciglitazone”. Also, in experiment [1] (10% FBS, Western blot (FIG. 2A)), the “concentration required for complete suppression of AR protein expression” value was “approximately 30 μM”. The “PPARγ activation (in words)” value at PPARγ is listed as “lacked appreciable activity”.

The term IC50 denotes the concentration that gives 50% inhibition.
